The values that follow come from doi:10.1101/2024.09.17.613365, “Type-II kinase inhibitors that target Parkinson’s Disease-associated LRRK2” (bioRxiv, 2025).

Assay [1] addresses T1, LRRK2^KW (Homo sapiens, UniProt Q5S007).
T1 construct: Kinase and WD40 domain construct (KW)
Further details: Differential scanning fluorometry, thermal stabilization of LRRK2 KW by compound. The note with it: binder. From the text: Next, we evaluated the potency and selectivity of these new compounds. We performed on-target screening by measuring the thermostability increase of LRRK2^KW in the presence of the new compounds using DSF (Supporting Information Table S2). We also determined the in vitro IC50 (median inhibitory concentration) values for each of the new compounds by purifying LRRK2^RCKW and measuring its kinase activity in the presence of our new inhibitors using the PhosphoSense® activity assay from AssayQuant (Supporting Information Table S2). Finally, we estimated the kinome selectivity of each compound by measuring the thermostability increase of approximately 100 representative kinases in the presence of the compounds via DSF (Supporting Information Table S2). […] Additionally, we screened a library of published type-II inhibitors to identify those that bind to LRRK2^KW (a Kinase and WD40 domain construct of LRRK2) with high affinity.

Assay [2] has as its target T2, leucine-rich repeat kinase 2 (LRRK2) (Homo sapiens, UniProt Q5S007).
T2 construct: LRRK2^RCKW (ROC, COR, Kinase, WD40)
T2 sequence (Q5S007 1327-2527 limits assumed): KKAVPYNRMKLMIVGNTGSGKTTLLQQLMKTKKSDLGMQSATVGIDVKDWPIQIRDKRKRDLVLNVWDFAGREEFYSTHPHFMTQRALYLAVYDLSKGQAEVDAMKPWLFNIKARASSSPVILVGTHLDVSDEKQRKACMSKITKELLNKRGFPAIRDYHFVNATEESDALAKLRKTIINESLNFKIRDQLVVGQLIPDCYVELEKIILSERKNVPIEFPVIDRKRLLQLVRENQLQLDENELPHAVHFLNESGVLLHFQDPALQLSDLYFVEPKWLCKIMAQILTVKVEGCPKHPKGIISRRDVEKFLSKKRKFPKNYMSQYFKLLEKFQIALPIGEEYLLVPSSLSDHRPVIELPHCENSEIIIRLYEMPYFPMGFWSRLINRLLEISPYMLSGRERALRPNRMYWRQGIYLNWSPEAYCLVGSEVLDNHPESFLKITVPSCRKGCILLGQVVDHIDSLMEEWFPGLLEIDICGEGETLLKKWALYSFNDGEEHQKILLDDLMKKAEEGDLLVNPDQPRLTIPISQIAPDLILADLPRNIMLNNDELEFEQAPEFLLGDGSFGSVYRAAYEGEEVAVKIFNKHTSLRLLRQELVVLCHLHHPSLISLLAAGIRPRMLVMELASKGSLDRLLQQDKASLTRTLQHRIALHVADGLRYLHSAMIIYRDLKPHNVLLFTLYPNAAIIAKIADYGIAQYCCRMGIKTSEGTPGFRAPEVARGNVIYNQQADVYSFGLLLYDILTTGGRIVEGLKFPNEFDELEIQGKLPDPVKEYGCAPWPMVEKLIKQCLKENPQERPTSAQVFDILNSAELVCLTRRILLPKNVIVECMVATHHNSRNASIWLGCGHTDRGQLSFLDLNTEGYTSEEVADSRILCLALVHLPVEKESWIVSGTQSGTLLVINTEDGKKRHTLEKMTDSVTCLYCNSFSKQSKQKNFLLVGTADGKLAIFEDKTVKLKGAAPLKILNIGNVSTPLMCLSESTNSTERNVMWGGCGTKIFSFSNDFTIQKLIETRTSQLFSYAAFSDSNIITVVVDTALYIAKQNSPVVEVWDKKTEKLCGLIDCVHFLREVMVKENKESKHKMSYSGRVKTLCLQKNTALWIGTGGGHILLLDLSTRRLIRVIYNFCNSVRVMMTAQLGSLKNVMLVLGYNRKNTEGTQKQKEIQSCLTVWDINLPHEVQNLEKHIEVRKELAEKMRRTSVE
Nature of the assay: biochemical. Further details: PhosphoSense (AssayQuant) kinase activity assay with purified LRRK2 RCKW. From the text: (§1) Next, we evaluated the potency and selectivity of these new compounds. We performed on-target screening by measuring the thermostability increase of LRRK2^KW in the presence of the new compounds using DSF (Supporting Information Table S2). We also determined the in vitro IC50 (median inhibitory concentration) values for each of the new compounds by purifying LRRK2^RCKW and measuring its kinase activity in the presence of our new inhibitors using the PhosphoSense® activity assay from AssayQuant (Supporting Information Table S2). Finally, we estimated the kinome selectivity of each compound by measuring the thermostability increase of approximately 100 representative kinases in the presence of the compounds via DSF (Supporting Information Table S2).

Assay [3] concerns the target T1, LRRK2^KW. Further details: DSF thermal shift of purified LRRK2 KW construct with compound. As to conditions: binder. From the text:
Additionally, we screened a library of published type-II inhibitors to identify those that bind to LRRK2^KW (a Kinase and WD40 domain construct of LRRK2) with high affinity. […] Next, we evaluated the potency and selectivity of these new compounds. We performed on-target screening by measuring the thermostability increase of LRRK2^KW in the presence of the new compounds using DSF (Supporting Information Table S2). We also determined the in vitro IC50 (median inhibitory concentration) values for each of the new compounds by purifying LRRK2^RCKW and measuring its kinase activity in the presence of our new inhibitors using the PhosphoSense® activity assay from AssayQuant (Supporting Information Table S2). Finally, we estimated the kinome selectivity of each compound by measuring the thermostability increase of approximately 100 representative kinases in the presence of the compounds via DSF (Supporting Information Table S2).

For assay [4], the target named is T2, leucine-rich repeat kinase 2 (LRRK2). Nature of the assay: biochemical. Further details: PhosphoSense kinase activity assay, purified LRRK2 RCKW.
Excerpt: as §1

Assay [5] has the same target. Briefly: PhosphoSense kinase activity assay; DSF ΔTm […] K on LRRK2^KW. Type of assay: biochemical.
For assay [6] the target is unchanged. The description is as above. In kind it is biochemical. This is another data set of the same source.

SMILES strings stand for the structures.

T1 sequence (Q5S007 whole entry, the tested form may be a part): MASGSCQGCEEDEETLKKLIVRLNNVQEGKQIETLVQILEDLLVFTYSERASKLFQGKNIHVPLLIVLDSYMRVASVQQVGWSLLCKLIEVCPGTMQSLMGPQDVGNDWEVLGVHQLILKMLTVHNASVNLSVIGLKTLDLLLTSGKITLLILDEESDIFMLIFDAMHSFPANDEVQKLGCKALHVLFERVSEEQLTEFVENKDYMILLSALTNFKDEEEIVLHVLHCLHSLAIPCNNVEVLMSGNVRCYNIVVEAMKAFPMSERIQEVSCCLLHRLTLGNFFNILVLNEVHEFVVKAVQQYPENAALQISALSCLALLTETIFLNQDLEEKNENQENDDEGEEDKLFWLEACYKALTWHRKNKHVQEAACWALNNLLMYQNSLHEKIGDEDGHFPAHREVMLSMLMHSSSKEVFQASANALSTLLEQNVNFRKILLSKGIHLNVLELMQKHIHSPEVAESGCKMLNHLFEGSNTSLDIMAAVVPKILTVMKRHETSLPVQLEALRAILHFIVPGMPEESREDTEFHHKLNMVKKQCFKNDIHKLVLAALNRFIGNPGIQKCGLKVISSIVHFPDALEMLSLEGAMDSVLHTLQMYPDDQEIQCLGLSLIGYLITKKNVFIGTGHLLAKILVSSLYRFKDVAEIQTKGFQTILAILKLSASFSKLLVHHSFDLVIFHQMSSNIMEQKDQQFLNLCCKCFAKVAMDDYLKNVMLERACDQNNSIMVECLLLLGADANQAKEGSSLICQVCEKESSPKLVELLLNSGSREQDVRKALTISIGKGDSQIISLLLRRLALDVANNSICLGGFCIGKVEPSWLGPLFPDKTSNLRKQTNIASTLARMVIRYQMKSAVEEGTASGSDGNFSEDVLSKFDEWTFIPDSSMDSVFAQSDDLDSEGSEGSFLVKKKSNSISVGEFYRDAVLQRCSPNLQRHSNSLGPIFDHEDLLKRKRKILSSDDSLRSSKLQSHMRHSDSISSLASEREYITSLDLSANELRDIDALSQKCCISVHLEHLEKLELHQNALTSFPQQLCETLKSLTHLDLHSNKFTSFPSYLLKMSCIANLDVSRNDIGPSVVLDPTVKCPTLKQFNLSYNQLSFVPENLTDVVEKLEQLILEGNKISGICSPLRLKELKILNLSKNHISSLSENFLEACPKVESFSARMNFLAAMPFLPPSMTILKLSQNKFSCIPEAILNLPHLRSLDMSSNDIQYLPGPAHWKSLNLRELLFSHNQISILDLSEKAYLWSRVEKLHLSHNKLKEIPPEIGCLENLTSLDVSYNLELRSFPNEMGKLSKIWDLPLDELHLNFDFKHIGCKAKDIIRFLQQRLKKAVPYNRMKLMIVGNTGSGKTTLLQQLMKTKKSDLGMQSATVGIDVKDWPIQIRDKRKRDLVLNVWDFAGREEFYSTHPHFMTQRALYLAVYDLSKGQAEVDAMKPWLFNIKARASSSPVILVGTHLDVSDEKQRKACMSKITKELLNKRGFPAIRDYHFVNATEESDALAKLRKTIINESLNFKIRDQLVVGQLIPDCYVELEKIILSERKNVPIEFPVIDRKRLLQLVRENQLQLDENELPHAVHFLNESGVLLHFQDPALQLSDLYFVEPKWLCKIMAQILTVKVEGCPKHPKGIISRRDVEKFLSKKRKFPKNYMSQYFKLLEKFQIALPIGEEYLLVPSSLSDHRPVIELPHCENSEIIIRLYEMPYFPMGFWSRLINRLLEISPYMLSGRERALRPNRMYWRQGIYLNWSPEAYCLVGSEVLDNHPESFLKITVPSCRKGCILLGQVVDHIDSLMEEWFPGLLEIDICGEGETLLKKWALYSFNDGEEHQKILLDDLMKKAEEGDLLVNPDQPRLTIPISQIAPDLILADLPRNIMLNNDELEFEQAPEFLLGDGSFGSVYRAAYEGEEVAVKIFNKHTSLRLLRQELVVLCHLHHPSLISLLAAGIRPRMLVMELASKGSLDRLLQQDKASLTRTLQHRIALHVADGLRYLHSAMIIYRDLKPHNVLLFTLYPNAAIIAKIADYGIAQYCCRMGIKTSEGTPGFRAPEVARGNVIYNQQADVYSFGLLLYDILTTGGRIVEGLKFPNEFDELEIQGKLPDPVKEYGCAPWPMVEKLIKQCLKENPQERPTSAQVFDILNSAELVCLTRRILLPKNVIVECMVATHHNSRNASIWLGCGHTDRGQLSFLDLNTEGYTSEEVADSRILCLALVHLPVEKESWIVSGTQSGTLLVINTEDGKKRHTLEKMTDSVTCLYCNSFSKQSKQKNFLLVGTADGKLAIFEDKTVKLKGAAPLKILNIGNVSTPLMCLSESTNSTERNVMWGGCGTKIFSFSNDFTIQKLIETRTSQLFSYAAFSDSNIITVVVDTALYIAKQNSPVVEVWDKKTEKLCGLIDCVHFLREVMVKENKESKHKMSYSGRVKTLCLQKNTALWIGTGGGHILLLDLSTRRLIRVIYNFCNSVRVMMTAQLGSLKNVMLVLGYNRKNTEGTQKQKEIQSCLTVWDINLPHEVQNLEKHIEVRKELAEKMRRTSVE

A word on the IC50: it is the concentration at which inhibition is half-maximal. For the molecule `NC(=O)C1(C(=O)N(c2cccc(-c3c[nH]c4ncnc(N5CCOCC5)c34)c2)c2cccc3c2CCC3)CC1` [compound 11, N-(2,3-dihydro-1H-inden-4-yl)-N-(3-(4-morpholino-7H-pyrrolo[2,3-d]pyrimidin-5-yl)phenyl)cyclopropane-1,1-dicarboxamide], at LRRK2^KW [1], the “ΔTm [K]” value was 9.2 K. In assay [2], this molecule returned a concentration for half-maximal inhibition (IC50) of 989 ± 32 nM.
With `Cc1ccc(-n2nc(C(C)(C)C)cc2NC(=O)Nc2ccc3cn[nH]c3c2)cc1` [compound 54, 1-(3-(tert-butyl)-1-(p-tolyl)-1H-pyrazol-5-yl)-3-(1H-indazol-6-yl)urea], on LRRK2^KW [3], the “∆Tm [K]” value is given as 2.0 K. Moreover, the half-maximal inhibitory concentration (IC50) in assay [4] (read-out: IC50 [nM]) was more than 15000 nM.
Take `CC(C)(C)c1cc(NC(=O)Nc2ccc3cn[nH]c3c2)n(-c2ccc3ncccc3c2)n1` [compound 53, 1-(3-(tert-butyl)-1-(quinolin-6-yl)-1H-pyrazol-5-yl)-3-(1H-indazol-6-yl)urea]: the “∆Tm [K]” value on LRRK2^KW [3] was 2.0 K. Further, the half-inhibitory concentration (IC50) in assay [4] (read-out: IC50 [nM]) was more than 15000 nM.
As to `CN1CCc2cc(N(C(=O)C3(C(N)=O)CC3)c3cccc(-c4c[nH]c5ncnc(N6CCOCC6)c45)c3)ccc2C1` [compound 10, N-(2-methyl-1,2,3,4-tetrahydroisoquinolin-6-yl)-N-(3-(4-morpholino-7H-pyrrolo[2,3-d]pyrimidin-5-yl)phenyl)cyclopropane-1,1-dicarboxamide], the “ΔTm [K]” value on LRRK2^KW [1] is reported as 4.3 K. Also, in assay [2], the concentration for half-maximal inhibition (IC50) was 3180 ± 134 nM.
Consider `Cc1ccc(C(=O)Nc2ccc(CN3CCN(C)CC3)c(C(F)(F)F)c2)cc1C#Cc1ccc2cn[nH]c2c1` [compound 52, 3-((1H-indazol-6-yl)ethynyl)-4-methyl-N-(4-((4-methylpiperazin-1-yl)methyl)-3-(trifluoromethyl)phenyl)benzamide], for which, at LRRK2^KW [3], the “∆Tm [K]” value was 10.0 K. Also, the IC50 in assay [4] (read-out: IC50) turned out to be 897 ± 120 nM.
As for `Cc1cc(N(C(=O)C2(C(N)=O)CC2)c2cccc(-c3c[nH]c4ncnc(N5CCOCC5)c34)c2)ccc1F` [compound 20, 20], in assay [5], the IC50 is 110 ± 11 nM.
Consider `NC(=O)C1(C(=O)N(c2cccc(-c3c[nH]c4ncnc(N5CCOCC5)c34)c2)c2ccc(F)c(Br)c2F)CC1` [compound 26, RN222], for which the half-maximal inhibitory concentration (IC50) in assay [6] was found to be 134 ± 5 nM.
For `COc1cc(S(C)(=O)=O)ccc1Nc1nc(N(C)C)c2c(-c3cccc(NC(=O)Nc4cc(C(C)(C)C)nn4-c4ccc5ncccc5c4)c3)c[nH]c2n1` [compound 37, 1-(3-(tert-butyl)-1-(quinolin-6-yl)-1H-pyrazol-5-yl)-3-(3-(4-(dimethylamino)-2-((2-methoxy-4-(methylsulfonyl)phenyl)amino)-7H-pyrrolo[2,3-d]pyrimidin-5-yl)phenyl)urea], the “ΔTm [K]” value at LRRK2^KW [1] came out at 1.5 K.
